From ChEMBL document CHEMBL4373635, “Synthesis of novel vanillin derivatives: novel multi-targeted scaffold ligands against Alzheimer's disease” (Medchemcomm, 2019)
Calls of active or inactive are those of the source. The rule behind the calls is not given here.

Key:
[1] = biological target: Acetylcholinesterase (Electrophorus electricus, UniProt O42275); test: Inhibition of Electrophorus electricus AChE using acetylthiocholine iodide as substrate preincubated for 10 mins followed by substrate addition and measured after 10 mins by Ellman's method
[2] = Antioxidant activity assessed as reduction of ferric-tripyridyltriazine complex by measuring trolox equivalents at pH 3.5 after 30 mins under dark condition by FRAP assay; type: functional
[3] = Antioxidant activity assessed as AAPH radical scavenging activity by measuring trolox equivalents preincubated for 30 mins followed by AAPH addition and measured every 2 mins for 2 hrs by ORAC assay; type: functional
[4] = biological target: Amyloid-beta precursor protein (Homo sapiens) (UniProt P05067); test: Inhibition of amyloid beta (1 to 42 ) (unknown origin) self aggregation at 10 uM after 24 hrs by thioflavin-T fluorescence method relative to control
[5] = system: SH-SY5Y; test: Neuroprotective activity against human SH-SY5Y cells assessed as inhibition of H2O2-induced cell death at 5 uM preincubated for 24 hrs followed by H2O2 treatment and measured after 24 hrs by MTT assay relative to control; type: functional
[6] = system: SH-SY5Y; test: Cytotoxicity against human SH-SY5Y cells assessed as reduction in cell viability after 24 hrs by MTT assay; type: cell-based
[7] = system: SH-SY5Y; test: Neuroprotective activity against human SH-SY5Y cells assessed as inhibition of H2O2-induced cell death at 1 uM preincubated for 24 hrs followed by H2O2 treatment and measured after 24 hrs by MTT assay; type: functional, cell-based
[8] = system: SH-SY5Y; test: Cytotoxicity against human SH-SY5Y cells assessed as cell viability at 12.5 uM after 24 hrs by MTT assay; type: cell-based
[9] = system: SH-SY5Y; test: Cytotoxicity against human SH-SY5Y cells assessed as reduction in cell viability at 25 uM after 24 hrs by MTT assay; type: cell-based
[10] = system: SH-SY5Y; test: Neuroprotective activity against human SH-SY5Y cells assessed as H2O2-induced cell death at 0.01 to 0.1 uM preincubated for 24 hrs followed by H2O2 treatment and measured after 24 hrs by MTT assay; type: functional, cell-based
[11] = system: SH-SY5Y; test: Cytotoxicity against human SH-SY5Y cells assessed as cell viability at 5 uM after 24 hrs by MTT assay; type: cell-based

Sequence of Acetylcholinesterase (O42275 whole entry): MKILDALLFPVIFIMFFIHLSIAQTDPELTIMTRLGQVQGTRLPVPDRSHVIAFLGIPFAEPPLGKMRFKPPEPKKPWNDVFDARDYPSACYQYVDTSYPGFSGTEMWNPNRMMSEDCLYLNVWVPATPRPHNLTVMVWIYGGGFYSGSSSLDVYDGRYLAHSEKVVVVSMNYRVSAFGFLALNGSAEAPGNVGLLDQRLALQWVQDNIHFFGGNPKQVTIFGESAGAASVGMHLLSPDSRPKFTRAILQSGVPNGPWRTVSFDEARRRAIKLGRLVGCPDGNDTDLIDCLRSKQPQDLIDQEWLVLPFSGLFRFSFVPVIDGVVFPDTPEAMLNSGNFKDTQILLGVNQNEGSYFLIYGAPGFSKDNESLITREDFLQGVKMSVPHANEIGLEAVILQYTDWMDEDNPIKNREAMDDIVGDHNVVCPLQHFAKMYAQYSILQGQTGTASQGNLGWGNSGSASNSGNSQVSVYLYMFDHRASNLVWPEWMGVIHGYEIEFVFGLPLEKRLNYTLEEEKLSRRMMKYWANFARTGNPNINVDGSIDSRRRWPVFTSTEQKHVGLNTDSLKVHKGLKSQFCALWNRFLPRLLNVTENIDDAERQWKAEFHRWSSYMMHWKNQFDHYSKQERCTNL
Sequence of Amyloid-beta precursor protein (Homo sapiens) (P05067 whole entry): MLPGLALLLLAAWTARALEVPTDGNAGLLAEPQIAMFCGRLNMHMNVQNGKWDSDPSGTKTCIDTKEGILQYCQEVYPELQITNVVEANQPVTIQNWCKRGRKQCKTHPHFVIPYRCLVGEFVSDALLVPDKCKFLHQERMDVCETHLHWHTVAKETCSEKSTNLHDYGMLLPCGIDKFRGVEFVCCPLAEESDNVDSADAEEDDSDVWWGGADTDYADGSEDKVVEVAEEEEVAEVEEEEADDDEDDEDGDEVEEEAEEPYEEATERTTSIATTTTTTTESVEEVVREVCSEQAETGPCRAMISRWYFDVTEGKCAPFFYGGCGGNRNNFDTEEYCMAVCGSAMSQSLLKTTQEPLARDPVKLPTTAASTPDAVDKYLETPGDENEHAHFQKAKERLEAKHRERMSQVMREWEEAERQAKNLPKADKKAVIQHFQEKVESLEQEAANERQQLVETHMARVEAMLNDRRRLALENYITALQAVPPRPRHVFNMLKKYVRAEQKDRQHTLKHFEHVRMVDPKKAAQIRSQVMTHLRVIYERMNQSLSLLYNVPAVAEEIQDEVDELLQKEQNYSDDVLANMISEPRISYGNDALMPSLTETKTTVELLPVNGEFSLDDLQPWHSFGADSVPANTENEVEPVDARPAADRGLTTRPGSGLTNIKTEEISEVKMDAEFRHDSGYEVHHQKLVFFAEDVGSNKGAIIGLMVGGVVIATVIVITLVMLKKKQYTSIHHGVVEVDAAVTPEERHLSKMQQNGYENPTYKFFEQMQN

| SMILES | IC50 [1] | Activity [2] | Activity [3] | inhibition [4] | inhibition at 5 µM [5] | IC50 [6] | Activity [7] | Activity [8] | Activity [9] | Activity [10] | Activity [11] |
| --- | --- | --- | --- | --- | --- | --- | --- | --- | --- | --- | --- |
| COc1cc(/C=N/CCCN2C(=O)c3cccc4cccc(c34)C2=O)ccc1O | 128 µM | 0.07 equiv | 2.1 equiv | – | – | – | – | – | – | – | – |
| COc1cc(CNCCCN2C(=O)c3cccc4cccc(c34)C2=O)ccc1O | 10.1 µM | 0.26 equiv | 3.9 equiv | 30.4% | – | – | – | – | – | – | – |
| COc1cc(CNCCCN2C(=O)c3cccc4cccc(c34)C2=O)cc(OC)c1O | 24.3 µM | 1.45 equiv | 2 equiv | 33.2% | – | – | – | – | – | – | – |
| COc1cc(CNc2ccc(Nc3c4c(nc5ccccc35)CCCC4)cc2)ccc1O | 2.13 µM | 1.54 equiv | 6.4 equiv | 77.1% | 30% | 45.1 µM | Active | Non-Toxic | Toxic | inactive | Non-Toxic |
